Data as given in ChEMBL document CHEMBL2203245 (Bioorg Med Chem Lett, 2012).

Tests used:
Mu-type opioid receptor [1] = target: T1, Mu-type opioid receptor (Homo sapiens, UniProt P35372); experiment: Partial agonist activity at human mu opioid receptor expressed in CHO cells assessed as [35S]GTPgammaS binding after 60 mins by scintillation counting relative to untreated-control; format: functional, cell-based
[2] = target: T2, Kappa-type opioid receptor (Homo sapiens, UniProt P41145); experiment: Antagonist activity at human kappa opioid receptor expressed in CHO cells assessed as inhibition of U50,488-induced [35S]GTPgammaS binding after 60 mins by scintillation counting; format: functional, cell-based
T2 sequence (P41145 whole entry): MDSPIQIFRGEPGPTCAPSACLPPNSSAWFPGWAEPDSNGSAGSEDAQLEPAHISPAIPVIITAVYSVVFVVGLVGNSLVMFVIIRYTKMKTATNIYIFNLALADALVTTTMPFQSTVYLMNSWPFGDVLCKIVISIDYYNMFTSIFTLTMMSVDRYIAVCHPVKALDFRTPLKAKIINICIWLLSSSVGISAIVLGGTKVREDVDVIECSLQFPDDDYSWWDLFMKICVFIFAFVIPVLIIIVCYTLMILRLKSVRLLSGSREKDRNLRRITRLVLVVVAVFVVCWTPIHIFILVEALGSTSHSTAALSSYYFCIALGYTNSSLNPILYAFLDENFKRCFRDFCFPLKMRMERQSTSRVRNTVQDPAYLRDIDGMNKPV

[3] = target: T3, Delta-type opioid receptor (Homo sapiens, UniProt P41143); experiment: Displacement of [3H]Naltrindole from human delta opioid receptor expressed in CHO cells after 3 hrs by scintillation counting; format: cell-based
T3 sequence (P41143 whole entry): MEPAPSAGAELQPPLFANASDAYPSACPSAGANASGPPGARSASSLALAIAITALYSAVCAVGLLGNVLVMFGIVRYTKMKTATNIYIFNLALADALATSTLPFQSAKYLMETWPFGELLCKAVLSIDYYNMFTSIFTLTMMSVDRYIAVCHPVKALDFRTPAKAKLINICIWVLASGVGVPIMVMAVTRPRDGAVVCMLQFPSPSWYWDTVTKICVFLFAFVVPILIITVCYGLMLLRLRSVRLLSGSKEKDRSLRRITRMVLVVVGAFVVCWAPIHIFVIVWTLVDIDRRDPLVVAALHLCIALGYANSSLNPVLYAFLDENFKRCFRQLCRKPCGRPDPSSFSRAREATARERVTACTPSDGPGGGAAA

[4] = target: T3, Delta-type opioid receptor; experiment: Agonist activity at human delta opioid receptor expressed in CHO cells assessed as [35S]GTPgammaS binding after 60 mins by scintillation counting; format: functional, cell-based
Mu-type opioid receptor [5] = target: T1, Mu-type opioid receptor; experiment: Antagonist activity at human mu opioid receptor expressed in CHO cells assessed as inhibition of DAMGO-induced [35S]GTPgammaS binding after 60 mins by scintillation counting relative to untreated-control; format: functional, cell-based
[6] = target: T3, Delta-type opioid receptor; experiment: Antagonist activity at human delta opioid receptor expressed in CHO cells assessed as inhibition of SNC80-induced [35S]GTPgammaS binding after 60 mins by scintillation counting; format: functional, cell-based
[7] = target: T2, Kappa-type opioid receptor; experiment: Agonist activity at human kappa opioid receptor expressed in CHO cells assessed as [35S]GTPgammaS binding after 60 mins by scintillation counting; format: functional, cell-based
[8] = target: T2, Kappa-type opioid receptor; experiment: Displacement of [3H]U69,593 from human kappa opioid receptor expressed in CHO cells after 60 mins by scintillation counting; format: cell-based
Mu-type opioid receptor [9] = target: T1, Mu-type opioid receptor; experiment: Displacement of [3H]DAMGO from human mu opioid receptor expressed in CHO cells after 60 mins by scintillation counting; format: cell-based
Homo sapiens [10] = organism: Homo sapiens; experiment: Selectivity ratio of Ki for human delta opioid receptor to Ki for human mu opioid receptor
Homo sapiens [11] = organism: Homo sapiens; experiment: Selectivity ratio of Ki for human kappa opioid receptor to Ki for human mu opioid receptor
Mu-type opioid receptor [12] = target: T1, Mu-type opioid receptor; experiment: Agonist activity at human mu opioid receptor expressed in CHO cells assessed as [35S]GTPgammaS binding after 60 mins by scintillation counting relative to untreated-control; format: functional, cell-based
Mu-type opioid receptor [13] = target: T1, Mu-type opioid receptor; experiment: Antagonist activity at human mu opioid receptor expressed in CHO cells assessed as inhibition of DAMGO-induced [35S]GTPgammaS binding after 60 mins by scintillation counting; format: functional, cell-based
[14] = target: T3, Delta-type opioid receptor; experiment: Partial agonist activity at human delta opioid receptor expressed in CHO cells assessed as [35S]GTPgammaS binding after 60 mins by scintillation counting relative to untreated control; format: functional, cell-based
Mu-type opioid receptor [15] = target: T1, Mu-type opioid receptor; experiment: Partial agonist activity at human mu opioid receptor expressed in CHO cells assessed as [35S]GTPgammaS binding after 60 mins by scintillation counting; format: functional, cell-based
[16] = target: T3, Delta-type opioid receptor; experiment: Partial agonist activity at human delta opioid receptor expressed in CHO cells assessed as [35S]GTPgammaS binding after 60 mins by scintillation counting; format: functional, cell-based

T1 sequence (P35372 whole entry): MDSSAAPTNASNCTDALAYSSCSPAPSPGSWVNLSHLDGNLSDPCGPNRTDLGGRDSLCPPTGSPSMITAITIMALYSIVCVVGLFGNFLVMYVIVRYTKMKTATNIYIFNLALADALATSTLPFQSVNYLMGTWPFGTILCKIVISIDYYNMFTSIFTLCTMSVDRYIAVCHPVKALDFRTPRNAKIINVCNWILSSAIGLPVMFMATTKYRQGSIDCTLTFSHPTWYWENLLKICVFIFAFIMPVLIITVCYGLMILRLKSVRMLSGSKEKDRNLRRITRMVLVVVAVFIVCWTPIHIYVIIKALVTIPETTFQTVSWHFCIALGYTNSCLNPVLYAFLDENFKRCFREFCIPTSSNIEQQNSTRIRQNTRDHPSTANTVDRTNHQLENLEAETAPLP

With `C[C@H]1[C@H]2Cc3ccc(C(=O)NCCc4ccc(-c5ccc(O)cc5)cc4)cc3[C@]1(C)CCN2CC1CC1` the Emax (Mu-type opioid receptor [1]) was 31%, the IC50 [2] was “Not Active” and the Ki [3] was 0.78 nM. For the same molecule, the EC50 [4] was 0.31 nM, the Imax (Mu-type opioid receptor [5]) was 62% and the IC50 ([6]; cho) was “Not Active”. The EC50 [7] was 0.26 nM and the Ki [8] was 0.36 nM.

Work on `COc1ccccc1-c1ccc(CCNC(=O)c2ccc3c(c2)C2(C)CCN(CC4CC4)C(C3)C2C)cc1` (racemic) yielded a Ki (Mu-type opioid receptor [9]) of 0.12 nM, a Ratio Ki (Homo sapiens [10]) of 7 and a Ki [3] of 0.84 nM. It also gave a Ratio Ki (Homo sapiens [11]) of 3 and a Ki [8] of 0.38 nM.

In the case of `COc1ccc2cc(CCNC(=O)c3ccc4c(c3)C3(C)CCN(CC5CC5)C(C4)C3C)ccc2c1` (racemic), the Emax (Mu-type opioid receptor [12]) is reported as 6.6%, the Ki (Mu-type opioid receptor [9]) is reported as 0.064 nM and the IC50 [2] is reported as “Not Active”. The Ki [3] was 2.2 nM, the EC50 [4] was 7.5 nM and the Imax (Mu-type opioid receptor [5]) was 76%. The IC50 (Mu-type opioid receptor [13]) was 45 nM, the IC50 ([6]; cho) was “Not Active” and the EC50 [7] was 1.3 nM. For the same molecule, the Ki [8] was 0.45 nM.

With `COc1cccc(-c2ccc(CCNC(=O)c3ccc4c(c3)C3(C)CCN(CC5CC5)C(C4)C3C)cc2)c1` (racemic) the IC50 [2] was “Not Active”, the Ki [3] was 1.3 nM and the EC50 [4] was 1.2 nM. The IC50 ([6]; cho) was “Not Active”, the EC50 [7] was 3.1 nM and the Ki [8] was 0.22 nM.

`CC1C2Cc3ccc(C(=O)NCCc4ccc(-c5cccc(O)c5)cc4)cc3C1(C)CCN2CC1CC1` (racemic) showed a Ki (Mu-type opioid receptor [9]) of 0.021 nM, a Ratio Ki (Homo sapiens [10]) of 57 and a Ki [3] of 1.2 nM. The Ratio Ki (Homo sapiens [11]) was 62 and the Ki [8] was 1.3 nM.

For `COc1ccc(-c2ccc(CCNC(=O)c3ccc4c(c3)C3(C)CCN(CC5CC5)C(C4)C3C)cc2)cc1C` (racemic), the Emax (Mu-type opioid receptor [1]) was 21%, the IC50 [2] was “Not Active” and the EC50 [4] was 2.8 nM. For the same molecule, the Imax (Mu-type opioid receptor [5]) was 81% and the IC50 ([6]; cho) was “Not Active”.

With `CC1C2Cc3ccc(C(=O)NCCc4ccc(-c5ccc(OC(F)(F)F)cc5)cc4)cc3C1(C)CCN2CC1CC1` (racemic) the Ki (Mu-type opioid receptor [9]) was 1.8 nM, the Ratio Ki (Homo sapiens [10]) was 4 and the Ki [3] was 6.6 nM. For the same molecule, the Ratio Ki (Homo sapiens [11]) was 3 and the Ki [8] was 5.2 nM.

Work on `CC1C2Cc3ccc(C(=O)NCCc4ccc(-c5ccc(OC(F)F)cc5)cc4)cc3C1(C)CCN2CC1CC1` (racemic) yielded a Ki (Mu-type opioid receptor [9]) of 0.3 nM, a Ratio Ki (Homo sapiens [10]) of 3 and a Ki [3] of 0.8 nM. For the same molecule, the Ratio Ki (Homo sapiens [11]) was 9 and the Ki [8] was 2.7 nM.

With `COc1ccc(-c2ccc(CCNC(=O)c3ccc4c(c3)C3(C)CCN(CC5CC5)C(C4)C3C)cc2)cc1OC` (racemic) the Ki (Mu-type opioid receptor [9]) was 0.0071 nM, the Emax (Mu-type opioid receptor [1]) was 32% and the Ratio Ki (Homo sapiens [10]) was 211. The Emax [14] was 73%, the IC50 [2] was “Not Active” and the Ki [3] was 1.5 nM. The Ratio Ki (Homo sapiens [11]) was 183, the Imax (Mu-type opioid receptor [5]) was 70% and the IC50 (Mu-type opioid receptor [13]) was 29 nM. It also gave an IC50 ([6]; read-out: IC50) of 70 nM, an EC50 [7] of 3 nM and a Ki [8] of 1.3 nM. The EC50 (Mu-type opioid receptor [15]) was 1.6 nM and the EC50 [16] was 6.2 nM.

Work on `COc1ccc(-c2ccc(CCNC(=O)c3ccc4c(c3)C3(C)CCN(CC5CC5)C(C4)C3C)cc2)cc1` (racemic) yielded a Ki (Mu-type opioid receptor [9]) of 0.084 nM, a Ratio Ki (Homo sapiens [10]) of 2 and a Ki [3] of 0.18 nM. For the same molecule, the Ratio Ki (Homo sapiens [11]) was 18 and the Ki [8] was 1.5 nM.

For `CC1C2Cc3ccc(C(=O)NCCc4ccc(-c5ccccc5O)cc4)cc3C1(C)CCN2CC1CC1` (racemic), the Ki (Mu-type opioid receptor [9]) was 0.0056 nM, the Emax (Mu-type opioid receptor [1]) was 48% and the IC50 [2] was “Not Active”. The Ki [3] was 0.24 nM, the EC50 [4] was 0.16 nM and the Imax (Mu-type opioid receptor [5]) was 67%. For the same molecule, the IC50 (Mu-type opioid receptor [13]) was 64 nM, the IC50 ([6]; cho) was “Not Active” and the EC50 [7] was 0.086 nM. For the same molecule, the Ki [8] was 2.1 nM and the EC50 (Mu-type opioid receptor [15]) was 1.5 nM.

With `CC1C2Cc3ccc(C(=O)NCCc4ccc(-c5ccc6c(c5)OCO6)cc4)cc3C1(C)CCN2CC1CC1` (racemic) the IC50 [2] was “Not Active”, the EC50 [4] was 0.8 nM and the IC50 ([6]; cho) was “Not Active”. It also gave an EC50 [7] of 0.34 nM.

`CC1C2Cc3ccc(O)cc3C1(C)CCN2CC1CC1` (racemic) gave a Ki [3] of 2 nM and a Ki [8] of 0.07 nM.

For `CC(C)Oc1ccc(-c2ccc(CCNC(=O)c3ccc4c(c3)C3(C)CCN(CC5CC5)C(C4)C3C)cc2)cc1` (racemic), the Emax (Mu-type opioid receptor [1]) was 35%, the IC50 [2] was “Not Active” and the EC50 [4] was 18 nM. For the same molecule, the Imax (Mu-type opioid receptor [5]) was 72%, the IC50 (Mu-type opioid receptor [13]) was 13 nM and the IC50 ([6]; cho) was “Not Active”. It also gave an EC50 (Mu-type opioid receptor [15]) of 2.3 nM.

Work on `CC1C2Cc3ccc(C(=O)NCCc4ccc5ccccc5c4)cc3C1(C)CCN2CC1CC1` (racemic) yielded a Ki (Mu-type opioid receptor [9]) of 0.18 nM, a Ratio Ki (Homo sapiens [10]) of 5 and a Ki [3] of 0.9 nM. The Ratio Ki (Homo sapiens [11]) was 1 and the Ki [8] was 0.2 nM.
